Laboratory results as given in paper PMC9147192, “Small Molecule Arranged Thermal Proximity Coaggregation (smarTPCA)—A Novel Approach to Characterize Protein–Protein Interactions in Living Cells by Similar Isothermal Dose–Responses” (International Journal of Molecular Sciences, 2022).

What was measured:
Assay in all cases: TPP-CCR in living HL-60 cells
Assay type in all cases: cell-based
[1] = target: T1, DDX18 (Homo sapiens, UniProt Q9NVP1)
T1 construct: endogenous in cells; host or cells: HL-60 (ATCC CCL-240)
T1 sequence (Q9NVP1 1-670): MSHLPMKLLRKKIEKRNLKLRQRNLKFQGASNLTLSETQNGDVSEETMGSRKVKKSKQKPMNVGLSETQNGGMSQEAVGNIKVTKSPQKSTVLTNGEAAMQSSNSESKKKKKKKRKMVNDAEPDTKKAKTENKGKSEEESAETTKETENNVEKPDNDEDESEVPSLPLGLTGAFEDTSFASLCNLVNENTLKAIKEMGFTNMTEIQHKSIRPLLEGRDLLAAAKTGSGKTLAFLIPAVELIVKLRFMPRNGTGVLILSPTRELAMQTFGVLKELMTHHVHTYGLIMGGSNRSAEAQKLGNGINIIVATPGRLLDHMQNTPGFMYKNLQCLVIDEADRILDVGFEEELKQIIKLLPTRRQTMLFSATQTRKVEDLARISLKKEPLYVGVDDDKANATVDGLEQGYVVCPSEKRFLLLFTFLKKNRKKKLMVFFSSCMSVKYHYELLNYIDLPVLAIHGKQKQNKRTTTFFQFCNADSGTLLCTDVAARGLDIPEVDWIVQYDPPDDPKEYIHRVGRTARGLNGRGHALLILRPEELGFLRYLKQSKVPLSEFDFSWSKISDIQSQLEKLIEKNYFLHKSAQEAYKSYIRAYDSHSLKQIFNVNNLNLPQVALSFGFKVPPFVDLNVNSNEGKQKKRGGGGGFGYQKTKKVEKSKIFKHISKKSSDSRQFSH
From the text: (§1) Therefore, we performed TPP with compound concentration range (TPP-CCR) experiments according to published procedures. In brief, after preparing tryptic peptides from the non-denatured protein fractions (used for immunoblotting in the previous sections) applying the SP3 method, the peptides were labeled using TMT10plex, coding for inhibitor concentration, and the samples belonging to a TMT set were combined, offline high-pH fractionated, and analyzed by MS.
(§2) HL-60 cells were expanded as described above for CETSA and TPP-TR to 1.25 million cells per milliliter. […] A number of 2.5 million cells in 2 mL of medium were added to each tube and incubated (1 h, 37 °C). After centrifugation (300 rcf, 3 min, r.t.) and removing all of the supernating culture medium, the cells were washed once with 2 mL and once with 0.5 mL PBS (r.t.) by gently resuspending the cells, followed by centrifugation (300 rcf, 3 min, r.t.) and the complete removal of the supernatants.
(§3) After transferring the cells from the 2 mL Eppendorf tubes into correspondingly labeled PCR tubes (tube strips) using 100 µL of ice-cold PBS supplemented with protease inhibitors for resuspending the cells, the samples were further processed as described above for CETSA and TPP-TR, however, by applying a single treatment temperature of 51 °C.
(§4) For each sample set comprising ten compound concentration range samples, a same volume of the cell extracts containing the fraction of soluble, non-denatured proteins, corresponding to an average of 5 µg total protein, was used for further analysis. The calculated volume was respectively transferred into PCR tubes of a tube strip and supplemented with SDS sample buffer without DTT and bromophenol blue (final concentrations: 7.5% glycerol, 3% SDS, 37.5 mM Tris/HCl pH 7.0) and ddH2O to a final volume of 10 µL, respectively. Reduction and alkylation were performed by addition of 2.5 µL 100 mM dithiothreitol (DTT; incubation: 20 min, 56 °C, 1000 rpm in an Eppendorf ThermoMixer C, covering the tubes with aluminum foil to minimize condensation in the lids) and 3.33 µL 300 mM iodoacetamide (IAA; incubation: 15 min, r.t., in the dark without shaking), as well as 2.5 µL 100 mM DTT (incubation: 15 min, r.t., without shaking; quenching of excess of IAA). […] The beads were collected and washed (3× 200 µL 80% ethanol p.a. in HPLC-MS grade water, 1 × 200 µL acetonitrile (ACN; HPLC gradient grade)) using a device for handling of magnetic particles [patent US20100200405A1]. The ACN of the last washing step was completely removed by aspiration without letting the beads dry out.
(§5) Tryptic digest was performed on-bead by resuspending (use of an ultrasound bath may be required) the beads in 20 µL 50 mM TEAB in HPLC-MS grade water containing 0.1 µg Trypsin/Lys-C mix and 16.5 h incubation at 37 °C and 1000 rpm (Eppendorf ThermoMixer C, covering the tubes with aluminum foil to minimize condensation in the lids). Tryptic fragmentation of proteins was optimized by addition of another 0.1 µg of Trypsin/Lys-C mix in 2 µL 50 mM TEAB and 4 h incubation at 37 °C and 1000 rpm. After centrifugation for about 1 min in a table top centrifuge and magnetic concentration and retention of the beads at the inner tube wall, the supernatants containing the peptides were transferred into new PCR tubes (of tube strips) and were stored at −80 °C. The beads were discarded.
(§6) Half of the peptide samples (11 µL containing about 2.5 µg peptides) were transferred into new PCR tubes (of tube strips) and allowed to equilibrate to r.t. TMT labeling reagents were reconstituted as described for the TPP-TR samples, and 1 µL each was added to the reconstituted peptides according to the following scheme and homogenized immediately by aspiration and dispensing:
(§7) Peptide separation was performed as described above for the analysis of TPP-TR samples. […]

[2] = target: T2, ANP32E (Homo sapiens, UniProt Q9BTT0)
T2 construct: dose–responses (mean over replicates), derived from TPP-CCR experiments in living cells; endogenous in cells; host or cells: HL-60 cells (ATCC No. CCL-240)
T2 sequence (Q9BTT0 whole entry): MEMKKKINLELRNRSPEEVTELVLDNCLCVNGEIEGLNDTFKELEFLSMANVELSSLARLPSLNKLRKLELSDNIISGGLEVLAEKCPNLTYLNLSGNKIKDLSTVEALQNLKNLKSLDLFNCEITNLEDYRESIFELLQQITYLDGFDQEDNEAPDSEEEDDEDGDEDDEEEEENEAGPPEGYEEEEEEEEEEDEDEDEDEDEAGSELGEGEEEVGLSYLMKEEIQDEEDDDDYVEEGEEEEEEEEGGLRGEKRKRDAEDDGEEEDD
From the text: as §1, §2, §3, §4, §5, §6, §7

[3] = target: T3, SCO1 (Homo sapiens, UniProt O75880)
T3 construct: endogenous in cells; host or cells: HL-60 (ATCC CCL-240)
T3 sequence (O75880 68-301): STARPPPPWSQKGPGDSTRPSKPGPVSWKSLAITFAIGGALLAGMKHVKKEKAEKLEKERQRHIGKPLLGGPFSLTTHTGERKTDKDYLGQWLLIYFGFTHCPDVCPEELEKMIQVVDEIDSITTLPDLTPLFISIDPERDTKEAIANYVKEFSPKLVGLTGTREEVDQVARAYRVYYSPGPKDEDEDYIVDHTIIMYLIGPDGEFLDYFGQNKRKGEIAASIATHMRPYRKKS
From the text: as §1, §2, §3, §4, §5, §6, §7

[4] = living HL-60 cells, […] °C, TMT-MS

Cc1cnc(Nc2ccc(F)cc2Cl)nc1-c1c[nH]c(C(=O)N[C@H](CO)c2cccc(Cl)c2)c1 [ERK 11e]
Hill slope ([1]; TPP-CCR, living cells, DDX18): 0.20
Hill slope (DDX18) [1, 4]: 0.20
EC50 ([1]; living HL-60 cells, […] °C, TMT-MS, read-out: pEC50 (DDX18) (converted)): 0.2 µM
Hill slope ([2]; TPP-CCR, living cells, ANP32E): 0.58
Hill slope (ANP32E) [2, 4]: 0.58
EC50 ([2]; living HL-60 cells, […] °C, TMT-MS, read-out: pEC50 (ANP32E) (converted)): 0.166 µM
Hill slope ([3]; TPP-CCR, living cells, SCO1): 1.25
Hill slope (SCO1) [3, 4]: 1.25
EC50 ([3]; living HL-60 cells, […] °C, TMT-MS, read-out: pEC50 (SCO1) (converted)): 2.82 µM
